# Test results reported in ChEMBL document CHEMBL2029229, “Structure-activity relationship of a series of non peptidic RGD integrin antagonists targeting α5β1: part 1” (Bioorg Med Chem Lett, 2012).
# Columns and labels:
# [1] = tested on: A375M; assay: Selectivity ratio of IC50 for integrin alphavbeta3alpha5beta1-mediated human A375M cells adhesion to fibronectin in absence of MK-0429 to IC50 for integrin alpha5beta1-mediated human A375M cells adhesion to fibronectin in presence of MK-0429; format: cell-based
# [2] = target: Fibronectin receptor (Integrin alpha-5/beta-1 and alpha-V/beta-3) (Homo sapiens, UniProt P05106+P05556+P06756+P08648); assay: Antagonist activity at integrin alphavbeta3alpha5beta1 in human A375M cells assessed as inhibition of cell adhesion to fibronectin in presence of Mg2+; format: functional, cell-based
# [3] = target: T1, Integrin alpha-5/beta-1 (Homo sapiens, UniProt P05556+P08648); assay: Binding affinity to integrin alpha5beta1; format: protein-complex assay
# T1 sequence (P05556 21-798 limits assumed): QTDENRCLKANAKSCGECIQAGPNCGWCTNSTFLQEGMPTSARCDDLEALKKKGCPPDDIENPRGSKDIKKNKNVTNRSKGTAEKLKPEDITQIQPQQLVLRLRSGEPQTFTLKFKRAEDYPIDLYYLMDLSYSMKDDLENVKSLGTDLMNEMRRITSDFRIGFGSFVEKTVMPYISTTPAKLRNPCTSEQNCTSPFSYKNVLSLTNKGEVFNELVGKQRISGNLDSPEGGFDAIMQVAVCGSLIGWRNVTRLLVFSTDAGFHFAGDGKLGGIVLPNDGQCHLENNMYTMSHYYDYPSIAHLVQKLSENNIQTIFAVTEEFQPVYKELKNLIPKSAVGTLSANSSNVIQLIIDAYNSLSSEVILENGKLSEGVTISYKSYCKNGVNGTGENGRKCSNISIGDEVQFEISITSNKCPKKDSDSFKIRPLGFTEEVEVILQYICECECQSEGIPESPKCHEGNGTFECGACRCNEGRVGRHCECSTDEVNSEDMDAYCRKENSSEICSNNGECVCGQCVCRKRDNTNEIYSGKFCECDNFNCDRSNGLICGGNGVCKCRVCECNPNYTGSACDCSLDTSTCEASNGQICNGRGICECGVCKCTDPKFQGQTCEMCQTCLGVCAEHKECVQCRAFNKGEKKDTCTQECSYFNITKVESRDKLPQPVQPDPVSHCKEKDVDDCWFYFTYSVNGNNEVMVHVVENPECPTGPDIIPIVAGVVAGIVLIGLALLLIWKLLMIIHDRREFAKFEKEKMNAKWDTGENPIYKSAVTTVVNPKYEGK
# T1 sequence (P08648 42-894 limits assumed): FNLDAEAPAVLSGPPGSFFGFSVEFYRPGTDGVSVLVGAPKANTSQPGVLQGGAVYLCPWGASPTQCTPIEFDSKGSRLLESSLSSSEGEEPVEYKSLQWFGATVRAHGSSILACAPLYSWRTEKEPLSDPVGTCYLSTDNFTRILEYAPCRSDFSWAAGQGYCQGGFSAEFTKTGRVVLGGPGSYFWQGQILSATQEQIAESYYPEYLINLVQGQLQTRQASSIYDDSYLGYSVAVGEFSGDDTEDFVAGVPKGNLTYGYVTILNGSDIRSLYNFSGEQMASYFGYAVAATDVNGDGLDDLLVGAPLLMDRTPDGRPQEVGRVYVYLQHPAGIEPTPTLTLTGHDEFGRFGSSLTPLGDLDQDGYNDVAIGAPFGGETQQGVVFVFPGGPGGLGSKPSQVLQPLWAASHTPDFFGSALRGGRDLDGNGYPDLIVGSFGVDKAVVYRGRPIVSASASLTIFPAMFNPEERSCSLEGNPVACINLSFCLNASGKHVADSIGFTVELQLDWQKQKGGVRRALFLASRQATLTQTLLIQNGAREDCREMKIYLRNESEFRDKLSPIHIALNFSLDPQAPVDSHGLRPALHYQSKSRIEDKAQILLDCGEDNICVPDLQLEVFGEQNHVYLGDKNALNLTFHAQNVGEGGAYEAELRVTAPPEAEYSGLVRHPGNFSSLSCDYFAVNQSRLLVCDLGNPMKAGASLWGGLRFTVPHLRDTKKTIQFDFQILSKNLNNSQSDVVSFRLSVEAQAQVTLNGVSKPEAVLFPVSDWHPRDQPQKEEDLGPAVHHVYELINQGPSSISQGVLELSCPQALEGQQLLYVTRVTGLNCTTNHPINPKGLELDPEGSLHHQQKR
# T1 sequence (P08648 895-1049 limits assumed): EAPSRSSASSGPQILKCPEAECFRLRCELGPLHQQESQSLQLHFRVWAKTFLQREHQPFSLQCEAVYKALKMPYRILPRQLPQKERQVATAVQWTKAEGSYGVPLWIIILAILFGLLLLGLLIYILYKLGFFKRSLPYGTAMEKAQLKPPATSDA
# [4] = target: Integrin alpha-V/beta-3 (Homo sapiens, UniProt P05106+P06756); assay: Antagonist activity at integrin alphavbeta3 in human A375M cells assessed as inhibition of cell adhesion to fibrinogen in presence of Mg2+; format: functional, cell-based
# Chain of Integrin alpha-V/beta-3 (P05106 27-788 limits assumed): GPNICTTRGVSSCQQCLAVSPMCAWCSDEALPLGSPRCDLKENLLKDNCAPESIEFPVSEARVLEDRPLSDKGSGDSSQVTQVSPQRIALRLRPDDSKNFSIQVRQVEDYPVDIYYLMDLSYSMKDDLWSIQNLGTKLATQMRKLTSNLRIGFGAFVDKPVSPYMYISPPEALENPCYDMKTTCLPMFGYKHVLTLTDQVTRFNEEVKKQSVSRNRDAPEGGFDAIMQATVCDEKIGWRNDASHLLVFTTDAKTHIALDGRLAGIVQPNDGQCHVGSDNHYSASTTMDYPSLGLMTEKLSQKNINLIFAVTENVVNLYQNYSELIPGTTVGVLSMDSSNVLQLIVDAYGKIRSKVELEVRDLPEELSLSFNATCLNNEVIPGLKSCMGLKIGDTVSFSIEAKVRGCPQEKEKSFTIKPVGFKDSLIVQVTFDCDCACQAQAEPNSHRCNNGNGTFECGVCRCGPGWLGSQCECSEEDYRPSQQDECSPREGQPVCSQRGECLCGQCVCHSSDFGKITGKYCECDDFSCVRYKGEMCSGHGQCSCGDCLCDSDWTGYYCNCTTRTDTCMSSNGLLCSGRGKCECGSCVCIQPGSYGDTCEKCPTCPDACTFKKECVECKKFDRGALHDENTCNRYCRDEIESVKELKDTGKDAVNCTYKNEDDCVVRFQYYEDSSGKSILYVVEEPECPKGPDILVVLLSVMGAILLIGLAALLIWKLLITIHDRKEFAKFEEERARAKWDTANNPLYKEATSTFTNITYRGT
# Chain of Integrin alpha-V/beta-3 (P06756 31-889 limits assumed): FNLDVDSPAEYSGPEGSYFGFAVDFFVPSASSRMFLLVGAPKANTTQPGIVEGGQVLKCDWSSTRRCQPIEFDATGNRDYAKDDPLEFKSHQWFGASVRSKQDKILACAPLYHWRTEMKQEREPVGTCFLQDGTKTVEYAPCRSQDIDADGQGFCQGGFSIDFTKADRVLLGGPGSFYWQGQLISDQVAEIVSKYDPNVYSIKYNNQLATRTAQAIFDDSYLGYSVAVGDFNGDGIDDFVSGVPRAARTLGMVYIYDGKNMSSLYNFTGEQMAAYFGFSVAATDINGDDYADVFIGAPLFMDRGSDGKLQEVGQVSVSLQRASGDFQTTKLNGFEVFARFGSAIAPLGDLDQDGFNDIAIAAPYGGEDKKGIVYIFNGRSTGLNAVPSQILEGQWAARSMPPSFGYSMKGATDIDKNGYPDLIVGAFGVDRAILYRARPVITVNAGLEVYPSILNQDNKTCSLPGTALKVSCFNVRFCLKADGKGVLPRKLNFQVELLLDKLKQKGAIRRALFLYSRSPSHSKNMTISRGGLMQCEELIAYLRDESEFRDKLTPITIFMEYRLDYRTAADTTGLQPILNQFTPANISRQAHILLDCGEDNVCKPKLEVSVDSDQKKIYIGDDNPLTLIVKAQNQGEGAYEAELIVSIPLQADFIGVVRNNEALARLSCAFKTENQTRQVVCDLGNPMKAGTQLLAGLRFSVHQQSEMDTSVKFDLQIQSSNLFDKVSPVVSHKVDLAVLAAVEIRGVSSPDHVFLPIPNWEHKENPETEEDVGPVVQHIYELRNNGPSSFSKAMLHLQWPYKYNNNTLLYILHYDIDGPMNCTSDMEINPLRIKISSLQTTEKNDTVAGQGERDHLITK
# Chain of Integrin alpha-V/beta-3 (P06756 891-1048 limits assumed): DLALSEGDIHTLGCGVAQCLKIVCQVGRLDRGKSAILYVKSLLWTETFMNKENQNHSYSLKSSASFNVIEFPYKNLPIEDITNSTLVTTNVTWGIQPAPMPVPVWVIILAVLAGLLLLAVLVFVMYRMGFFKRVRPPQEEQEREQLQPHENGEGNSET
# [5] = Dissociation constant, pKa of the compound; format: physicochemical
# [6] = target: T1, Integrin alpha-5/beta-1; assay: Antagonist activity at integrin alpha5beta1 in human K562 cells assessed as inhibition of cell adhesion; format: functional, cell-based
# [7] = target: T1, Integrin alpha-5/beta-1; assay: Antagonist activity at integrin alpha5beta1 in human A375M cells assessed as inhibition of cell adhesion to fibronectin in presence of Mg2+ and MK-0429; format: functional, cell-based
# [8] = target: T1, Integrin alpha-5/beta-1; assay: Antagonist activity at integrin alpha5beta1 in human K562 cells assessed as inhibition of cell adhesion in presence of 630 uM human serum albumin; format: functional, cell-based
# [9] = Fraction unbound in rat plasma; format: ADME, cell-free
# [10] = target: Integrin alpha-IIb/beta-3 (Homo sapiens, UniProt P05106+P08514); assay: Inhibition of integrin alpha2b beta3; format: protein-complex assay
# Chain of Integrin alpha-IIb/beta-3 (P05106 27-788 limits assumed): as the sequence (P05106 27-788 limits assumed) above
# Chain of Integrin alpha-IIb/beta-3 (P08514 32-887 limits assumed): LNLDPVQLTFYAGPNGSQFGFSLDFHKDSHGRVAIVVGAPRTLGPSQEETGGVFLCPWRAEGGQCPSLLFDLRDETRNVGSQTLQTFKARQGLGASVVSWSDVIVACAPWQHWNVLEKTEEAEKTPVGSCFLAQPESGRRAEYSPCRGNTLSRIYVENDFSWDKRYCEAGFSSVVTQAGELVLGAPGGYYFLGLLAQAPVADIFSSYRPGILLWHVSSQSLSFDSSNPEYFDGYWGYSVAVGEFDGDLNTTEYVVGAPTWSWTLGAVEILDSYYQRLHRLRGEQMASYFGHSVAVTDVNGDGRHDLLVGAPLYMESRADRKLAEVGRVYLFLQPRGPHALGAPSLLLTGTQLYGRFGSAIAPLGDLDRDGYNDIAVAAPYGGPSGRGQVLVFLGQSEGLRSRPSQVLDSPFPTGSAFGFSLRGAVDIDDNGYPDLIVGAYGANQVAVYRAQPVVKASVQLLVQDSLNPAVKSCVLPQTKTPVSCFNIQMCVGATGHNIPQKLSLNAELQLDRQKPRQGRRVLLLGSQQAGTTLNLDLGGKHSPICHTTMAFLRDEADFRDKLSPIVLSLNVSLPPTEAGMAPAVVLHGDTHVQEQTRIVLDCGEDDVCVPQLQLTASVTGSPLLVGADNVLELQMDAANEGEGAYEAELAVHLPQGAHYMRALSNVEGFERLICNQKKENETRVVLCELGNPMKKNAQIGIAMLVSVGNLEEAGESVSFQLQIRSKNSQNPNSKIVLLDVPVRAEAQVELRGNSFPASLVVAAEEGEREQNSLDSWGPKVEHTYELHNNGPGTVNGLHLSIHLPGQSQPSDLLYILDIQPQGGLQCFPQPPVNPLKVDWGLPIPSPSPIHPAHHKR
# Chain of Integrin alpha-IIb/beta-3 (P08514 891-1039 limits assumed): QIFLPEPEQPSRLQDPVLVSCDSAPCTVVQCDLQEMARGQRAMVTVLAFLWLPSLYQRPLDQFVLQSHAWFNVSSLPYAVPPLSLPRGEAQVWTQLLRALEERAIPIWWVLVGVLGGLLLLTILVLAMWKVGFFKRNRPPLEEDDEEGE
Structure (SMILES),Ratio IC50 [1],IC50 [2] [µM],IC50 [3] [µM],IC50 [4] [µM],pKa [5],IC50 [6] [µM],IC50 [7] [µM],IC50 [8] [µM],fraction unbound [9],IC50 [10] [µM]
O=C(N[C@@H](Cc1ccc(OCCc2ccc3c(n2)NCCO3)cc1)C(=O)O)c1c(Cl)cccc1Cl,2.1,0.27,0.001,0.017,6,0.01,0.13,,,
NC(=O)NCCCOc1ccc(C[C@H](NC(=O)c2c(Cl)cccc2Cl)C(=O)O)cc1,,,0.15,,,10,,,,
O=C(N[C@@H](Cc1ccc(OCCc2ccc3c(n2)NCCC3)cc1)C(=O)O)c1c(Cl)cccc1Cl,4.5,0.009,< 0.001,0.001,7.6,< 0.003,,0.029,0.007,> 10
O=C(N[C@@H](Cc1ccc(C#CCCNc2ccccn2)cc1)C(=O)O)c1c(Cl)cccc1Cl,,,0.069,,6.7,2.1,,,,
Nc1cccc(CCOc2ccc(C[C@H](NC(=O)c3c(Cl)cccc3Cl)C(=O)O)cc2)n1,,,< 0.001,,,0.009,,,,
O=C(N[C@@H](Cc1ccc(OCCc2cccc(NC3CCCC3)n2)cc1)C(=O)O)c1c(Cl)cccc1Cl,,,0.083,,6.8,0.32,,,,
CN(C)c1cccc(CCOc2ccc(C[C@H](NC(=O)c3c(Cl)cccc3Cl)C(=O)O)cc2)n1,,,0.14,,,2.7,,,,
Cc1cc(C)c(C(=O)N[C@@H](CNC(=O)CO[C@@H]2C[C@@H](CNc3ccccn3)N(C(=O)OCc3ccccc3)C2)C(=O)O)c(C)c1,15,3.2,,1.2,,0.586,0.2,,,
CN1CC(CCCOc2ccc(C[C@H](NC(=O)c3c(Cl)cccc3Cl)C(=O)O)cc2)C1,,,0.36,,,58,,,,
CNc1cccc(COCc2ccc(C[C@H](NC(=O)c3c(Cl)cccc3Cl)C(=O)O)cc2)n1,,,0.22,,6.4,1.4,,,,
O=C(N[C@@H](Cc1ccc(OCCCCNc2ccccn2)cc1)C(=O)O)c1c(Cl)cccc1Cl,,,0.054,,,0.71,,,,
O=C(N[C@@H](Cc1ccc(OCCNc2nc3ccccc3[nH]2)cc1)C(=O)O)c1c(Cl)cccc1Cl,,,0.008,,7.2,0.16,,,,
CNc1cccc(CCOc2ccc(C[C@H](NC(=O)c3c(Cl)cccc3Cl)C(=O)O)cc2)n1,2.4,,,0.007,7,,,,,
CN1CCNc2nc(CCOc3ccc(C[C@H](NC(=O)c4c(Cl)cccc4Cl)C(=O)O)cc3)ccc21,1.6,0.25,0.001,0.023,7.1,< 0.008,0.15,< 0.056,0.015,> 10
O=C(Cc1ccc2c(n1)NCCC2)Nc1ccc(C[C@H](NC(=O)c2c(Cl)cccc2Cl)C(=O)O)cc1,4,0.86,0.003,0.049,,0.084,0.21,,,
O=C(N[C@@H](Cc1ccc(OCCNc2ccccn2)cc1)C(=O)O)c1c(Cl)cccc1Cl,,,,,6.7,,,,,
O=C(N[C@@H](Cc1ccc(CCCCNc2ccccn2)cc1)C(=O)O)c1c(Cl)cccc1Cl,,,0.024,,7.2,1.1,,,,
O=C(N[C@@H](Cc1ccc(OCCc2cccc(NCC3CC3)n2)cc1)C(=O)O)c1c(Cl)cccc1Cl,,,0.003,,,< 0.041,,,,
CNc1cccc(CCCc2ccc(C[C@H](NC(=O)c3c(Cl)cccc3Cl)C(=O)O)cc2)n1,,,,,7.6,,,,,
O=C(NCc1ccc2c(n1)NCCC2)c1ccc(C[C@H](NC(=O)c2c(Cl)cccc2Cl)C(=O)O)cc1,5.9,8.4,0.005,0.35,6.8,0.12,1.4,,,
O=C(N[C@@H](Cc1ccc(OCCNc2nc3ccccc3s2)cc1)C(=O)O)c1c(Cl)cccc1Cl,,,0.97,,4.3,2.4,,,,
O=C(N[C@@H](Cc1ccc(OCCCNc2ccccn2)cc1)C(=O)O)c1c(Cl)cccc1Cl,4,,,0.084,7.1,,,,,
O=C(N[C@@H](Cc1ccc(CCCc2ccc3c(n2)NCCC3)cc1)C(=O)O)c1c(Cl)cccc1Cl,,,< 0.001,,,< 0.008,,0.45,0.006,> 10
